Organism: Rattus norvegicus
Assay: Open TG-GATES - Regimen: Daily Repeat
Type: toxicity, organism-based, Sprague-Dawley
Design: regimen Daily Repeat, gender Male, age 6 weeks
Conditions: in vivo, po, route gavage; for APTT / Bas / Eos / Fbg / Hb / Ht / Lym / MCH / MCHC / MCV / Mono / Neu / PT / Plat / RBC / Ret / WBC: tissue Blood; for KIDNEY_L / KIDNEY_R / KIDNEY_TOTAL: tissue Kidney; for LIVER: tissue Liver; for A/G / ALP / ALT / AST / BUN / CRE / Ca / Cl / DBIL / GLC / IP / K / LDH / Na / PL / RALB / TBIL / TC / TG / TP / gamma-GTP: tissue Plasma
[1] = 100 mg/kg, 72 h, dose level Middle, time 3 day
[2] = 100 mg/kg, […], dose level Middle, time 7 day
[3] = 100 mg/kg, […], dose level Middle, time 14 day
[4] = 100 mg/kg, […], dose level Middle, time 28 day
[5] = 300 mg/kg, 72 h, dose level High, time 3 day
[6] = 300 mg/kg, […], dose level High, time 7 day
[7] = 300 mg/kg, […], dose level High, time 14 day
[8] = 300 mg/kg, […], dose level High, time 28 day

Cc1cccc(Nc2ccccc2C(=O)O)c1C [MEFENAMIC ACID]
TERMINAL_BW [1]: 234.2 g
APTT [1]: 18.5 s
Bas [1]: 0%
Eos [1]: 1%
Fbg [1]: 242.4 mg/dL
Hb [1]: 13.5 g/dL
Ht [1]: 38.1%
Lym [1]: 79.2%
MCH [1]: 22.1 pg
MCHC [1]: 35.4%
MCV [1]: 62.4 fL
Mono [1]: 2.6%
Neu [1]: 15.6%
PT [1]: 12.1 s
Plat [1]: 122.6 x10_4/uL
RBC [1]: 611.8 x10_4/ul
Ret [1]: 5.7%
WBC [1]: 97.2 x10_2/uL
KIDNEY_L [1]: 1 g
KIDNEY_R [1]: 1 g
KIDNEY_TOTAL [1]: 2 g
LIVER [1]: 11.2 g
A/G [1]: 1.6
ALP [1]: 1044 IU/L
ALT [1]: 38.6 IU/L
AST [1]: 65.4 IU/L
BUN [1]: 14.8 mg/dL
CRE [1]: 0.4 mg/dL
Ca [1]: 10.9 mg/dL
Cl [1]: 104 meq/L
DBIL [1]: 0.098 mg/dL
GLC [1]: 189.2 mg/dL
IP [1]: 6.9 mg/dL
K [1]: 4.2 meq/L
LDH [1]: 191.6 IU/L
Na [1]: 141.8 meq/L
PL [1]: 148 mg/dL
RALB [1]: 3.4 g/dL
TBIL [1]: 0.2 mg/dL
TC [1]: 81.6 mg/dL
TG [1]: 88.2 mg/dL
TP [1]: 5.5 g/dL
gamma-GTP [1]: 1.6 IU/L
TERMINAL_BW [2]: 269.2 g
TERMINAL_BW [3]: 320.1 g
TERMINAL_BW [4]: 386.3 g
APTT [2]: 18.5 s
Bas [2]: 0%
Eos [2]: 1%
Fbg [2]: 230 mg/dL
Hb [2]: 13.6 g/dL
Ht [2]: 37.9%
Lym [2]: 80.2%
MCH [2]: 21.7 pg
MCHC [2]: 35.9%
MCV [2]: 60.6 fL
Mono [2]: 2.4%
Neu [2]: 14.4%
PT [2]: 11.9 s
Plat [2]: 121.4 x10_4/uL
RBC [2]: 626.4 x10_4/ul
Ret [2]: 5.4%
WBC [2]: 99.8 x10_2/uL
APTT [3]: 20.3 s
Bas [3]: 0%
Eos [3]: 0.8%
Fbg [3]: 246.8 mg/dL
Hb [3]: 14.4 g/dL
Ht [3]: 40.6%
Lym [3]: 76%
MCH [3]: 21.6 pg
MCHC [3]: 35.3%
MCV [3]: 61.2 fL
Mono [3]: 2.4%
Neu [3]: 18.6%
PT [3]: 12.4 s
Plat [3]: 104.3 x10_4/uL
RBC [3]: 664 x10_4/ul
Ret [3]: 4.4%
WBC [3]: 124.7 x10_2/uL
APTT [4]: 19.4 s
Bas [4]: 0%
Eos [4]: 1.2%
Fbg [4]: 261.8 mg/dL
Hb [4]: 15.8 g/dL
Ht [4]: 44.8%
Lym [4]: 75%
MCH [4]: 19.8 pg
MCHC [4]: 35.3%
MCV [4]: 56.3 fL
Mono [4]: 2.2%
Neu [4]: 20.6%
PT [4]: 12.3 s
Plat [4]: 98.4 x10_4/uL
RBC [4]: 796.8 x10_4/ul
Ret [4]: 2.3%
WBC [4]: 98.3 x10_2/uL
KIDNEY_L [2]: 1.1 g
KIDNEY_R [2]: 1.2 g
KIDNEY_TOTAL [2]: 2.2 g
KIDNEY_L [3]: 1.3 g
KIDNEY_R [3]: 1.4 g
KIDNEY_TOTAL [3]: 2.7 g
KIDNEY_L [4]: 1.4 g
KIDNEY_R [4]: 1.4 g
KIDNEY_TOTAL [4]: 2.8 g
LIVER [2]: 12 g
LIVER [3]: 14.3 g
LIVER [4]: 14.9 g
A/G [2]: 1.5
ALP [2]: 825.2 IU/L
ALT [2]: 32.8 IU/L
AST [2]: 73.2 IU/L
BUN [2]: 17 mg/dL
CRE [2]: 0.4 mg/dL
Ca [2]: 10.7 mg/dL
Cl [2]: 103.2 meq/L
DBIL [2]: 0.078 mg/dL
GLC [2]: 219.2 mg/dL
IP [2]: 6.8 mg/dL
K [2]: 3.8 meq/L
LDH [2]: 177.4 IU/L
Na [2]: 140.2 meq/L
PL [2]: 150.8 mg/dL
RALB [2]: 3.4 g/dL
TBIL [2]: 0.1 mg/dL
TC [2]: 87.2 mg/dL
TG [2]: 62.2 mg/dL
TP [2]: 5.6 g/dL
gamma-GTP [2]: 1.2 IU/L
A/G [3]: 1.4
ALP [3]: 798 IU/L
ALT [3]: 39.6 IU/L
AST [3]: 64.6 IU/L
BUN [3]: 18.2 mg/dL
CRE [3]: 0.5 mg/dL
Ca [3]: 10.6 mg/dL
Cl [3]: 103.4 meq/L
DBIL [3]: 0.086 mg/dL
GLC [3]: 208.2 mg/dL
IP [3]: 7.4 mg/dL
K [3]: 4 meq/L
LDH [3]: 138.4 IU/L
Na [3]: 140.8 meq/L
PL [3]: 149 mg/dL
RALB [3]: 3.3 g/dL
TBIL [3]: 0.2 mg/dL
TC [3]: 79 mg/dL
TG [3]: 81.8 mg/dL
TP [3]: 5.8 g/dL
gamma-GTP [3]: 1 IU/L
A/G [4]: 1.3
ALP [4]: 673 IU/L
ALT [4]: 35.4 IU/L
AST [4]: 62.4 IU/L
BUN [4]: 18 mg/dL
CRE [4]: 0.5 mg/dL
Ca [4]: 10.7 mg/dL
Cl [4]: 104.2 meq/L
DBIL [4]: 0.088 mg/dL
GLC [4]: 219.4 mg/dL
IP [4]: 6.7 mg/dL
K [4]: 3.5 meq/L
LDH [4]: 143.8 IU/L
Na [4]: 141.2 meq/L
PL [4]: 156.8 mg/dL
RALB [4]: 3.6 g/dL
TBIL [4]: 0.1 mg/dL
TC [4]: 89.8 mg/dL
TG [4]: 81.6 mg/dL
TP [4]: 6.3 g/dL
gamma-GTP [4]: 1.6 IU/L
TERMINAL_BW [5]: 221.3 g
APTT [5]: 18.9 s
Bas [5]: 0%
Eos [5]: 1%
Fbg [5]: 345 mg/dL
Hb [5]: 9.4 g/dL
Ht [5]: 28%
Lym [5]: 61.8%
MCH [5]: 21.6 pg
MCHC [5]: 33.5%
MCV [5]: 64.6 fL
Mono [5]: 3.8%
Neu [5]: 28.4%
PT [5]: 11.3 s
Plat [5]: 117.3 x10_4/uL
RBC [5]: 434.2 x10_4/ul
Ret [5]: 13.5%
WBC [5]: 154.9 x10_2/uL
KIDNEY_L [5]: 1 g
KIDNEY_R [5]: 1 g
KIDNEY_TOTAL [5]: 2 g
LIVER [5]: 11 g
A/G [5]: 1.2
ALP [5]: 624.6 IU/L
ALT [5]: 28.6 IU/L
AST [5]: 54.6 IU/L
BUN [5]: 15 mg/dL
CRE [5]: 0.4 mg/dL
Ca [5]: 10.7 mg/dL
Cl [5]: 103.4 meq/L
DBIL [5]: 0.08 mg/dL
GLC [5]: 175 mg/dL
IP [5]: 6.7 mg/dL
K [5]: 4.1 meq/L
LDH [5]: 155.2 IU/L
Na [5]: 140.2 meq/L
PL [5]: 170.6 mg/dL
RALB [5]: 2.7 g/dL
TBIL [5]: 0.1 mg/dL
TC [5]: 88.4 mg/dL
TG [5]: 161.8 mg/dL
TP [5]: 4.9 g/dL
gamma-GTP [5]: 1.2 IU/L
TERMINAL_BW [6]: 251.1 g
TERMINAL_BW [7]: 275.2 g
TERMINAL_BW [8]: 342.8 g
APTT [6]: 17.3 s
Bas [6]: 0%
Eos [6]: 1%
Fbg [6]: 304.2 mg/dL
Hb [6]: 11.1 g/dL
Ht [6]: 32.3%
Lym [6]: 63.6%
MCH [6]: 22 pg
MCHC [6]: 34.4%
MCV [6]: 64.1 fL
Mono [6]: 3.4%
Neu [6]: 28.2%
PT [6]: 11.5 s
Plat [6]: 160 x10_4/uL
RBC [6]: 506.4 x10_4/ul
Ret [6]: 14.9%
WBC [6]: 201.4 x10_2/uL
APTT [7]: 19.6 s
Bas [7]: 0%
Eos [7]: 1%
Fbg [7]: 291.8 mg/dL
Hb [7]: 11.2 g/dL
Ht [7]: 33.5%
Lym [7]: 56.8%
MCH [7]: 23.9 pg
MCHC [7]: 33.2%
MCV [7]: 71.9 fL
Mono [7]: 2.8%
Neu [7]: 37.2%
PT [7]: 11.9 s
Plat [7]: 200.5 x10_4/uL
RBC [7]: 466.8 x10_4/ul
Ret [7]: 18.8%
WBC [7]: 198.5 x10_2/uL
APTT [8]: 19 s
Bas [8]: 0%
Eos [8]: 0.8%
Fbg [8]: 318 mg/dL
Hb [8]: 10 g/dL
Ht [8]: 32.3%
Lym [8]: 54.2%
MCH [8]: 21.1 pg
MCHC [8]: 30.8%
MCV [8]: 68.5 fL
Mono [8]: 2.8%
Neu [8]: 39.2%
PT [8]: 11.6 s
Plat [8]: 186.5 x10_4/uL
RBC [8]: 473 x10_4/ul
Ret [8]: 22.3%
WBC [8]: 274.1 x10_2/uL
KIDNEY_L [6]: 1.2 g
KIDNEY_R [6]: 1.1 g
KIDNEY_TOTAL [6]: 2.3 g
KIDNEY_L [7]: 1.2 g
KIDNEY_R [7]: 1.2 g
KIDNEY_TOTAL [7]: 2.4 g
KIDNEY_L [8]: 1.4 g
KIDNEY_R [8]: 1.4 g
KIDNEY_TOTAL [8]: 2.8 g
LIVER [6]: 12.2 g
LIVER [7]: 13.3 g
LIVER [8]: 15.2 g
A/G [6]: 1.3
ALP [6]: 574.4 IU/L
ALT [6]: 29.6 IU/L
AST [6]: 60.6 IU/L
BUN [6]: 15.8 mg/dL
CRE [6]: 0.4 mg/dL
Ca [6]: 10.3 mg/dL
Cl [6]: 103.6 meq/L
DBIL [6]: 0.084 mg/dL
GLC [6]: 197.2 mg/dL
IP [6]: 7.3 mg/dL
K [6]: 3.9 meq/L
LDH [6]: 227.8 IU/L
Na [6]: 140.6 meq/L
PL [6]: 150.4 mg/dL
RALB [6]: 2.9 g/dL
TBIL [6]: 0.1 mg/dL
TC [6]: 79.4 mg/dL
TG [6]: 136.4 mg/dL
TP [6]: 5 g/dL
gamma-GTP [6]: 1 IU/L
A/G [7]: 1.2
ALP [7]: 476.5 IU/L
ALT [7]: 30 IU/L
AST [7]: 57.2 IU/L
BUN [7]: 19.2 mg/dL
CRE [7]: 0.5 mg/dL
Ca [7]: 10.4 mg/dL
Cl [7]: 104 meq/L
DBIL [7]: 0.1 mg/dL
GLC [7]: 187.5 mg/dL
IP [7]: 6.5 mg/dL
K [7]: 4.4 meq/L
LDH [7]: 145.2 IU/L
Na [7]: 141.5 meq/L
PL [7]: 162.2 mg/dL
RALB [7]: 2.9 g/dL
TBIL [7]: 0.1 mg/dL
TC [7]: 78 mg/dL
TG [7]: 170.2 mg/dL
TP [7]: 5.2 g/dL
gamma-GTP [7]: 1.8 IU/L
A/G [8]: 1.2
ALP [8]: 382.8 IU/L
ALT [8]: 30.8 IU/L
AST [8]: 68.2 IU/L
BUN [8]: 20.5 mg/dL
CRE [8]: 0.5 mg/dL
Ca [8]: 10.4 mg/dL
Cl [8]: 104.2 meq/L
DBIL [8]: 0.1 mg/dL
GLC [8]: 190.5 mg/dL
IP [8]: 6.6 mg/dL
K [8]: 3.7 meq/L
LDH [8]: 166.2 IU/L
Na [8]: 141.2 meq/L
PL [8]: 176.8 mg/dL
RALB [8]: 2.9 g/dL
TBIL [8]: 0.2 mg/dL
TC [8]: 87.2 mg/dL
TG [8]: 212 mg/dL
TP [8]: 5.3 g/dL
gamma-GTP [8]: 2 IU/L

From ChEMBL document CHEMBL3885861, “Open TG-GATES”
